# From patent US9758524B2, “4-imidazopyridazin-1-yl-benzamides as Btk inhibitors” (Merck Sharp & Dohme B.V., priority 2011, dated 2017)
# Where two headings read alike, the source gives them in different places.
# Columns and labels:
# [1] = molecular target: FynT enzyme (Homo sapiens (Human), UniProt P06241); assay: FynT enzyme activity (IMAP fluorescence polarization assay); type: biochemical; details: 60 min pre-incubation, 0.2 μM ATP
# Protocol: FynT enzyme activity is measured using the IMAP (immobilized metal ion affinity-based fluorescence polarization) assay as outlined below.
# Test compounds and FynT enzyme are pre-incubated 60 minutes at room temperature, before adding 5 μL/well of 400 nM Fluorescin labeled substrate peptide (p34cdc2 substrate peptide, e.g. #R7157/#R7172, Molecular Devices) in KR-buffer. Final peptide substrate concentration in assay is 100 nM. […] Following incubation for 2 h at room temperature the enzyme reaction is stopped by adding 40 μL/well IMAP Progressive Binding Solution (according to suppliers (Molecular Devices) protocol using 75% 1× buffer A and 25% 1× buffer B with 1:600 Progressive Binding Solution). After 60 min incubation at room temperature in the dark the FP signal is read. […] Values are calculated as percentage of the difference in readout (ΔmPi) of the controls with and without ATP. EC50 values are determined by curve fitting of the experimental results using Activity Base.
# [2] = molecular target: Btk enzyme (His-Btk) (Homo sapiens (Human), UniProt Q06187); assay: Btk enzyme activity (IMAP fluorescence polarization assay)
# [3] = molecular target: Lck enzyme (Homo sapiens (Human), UniProt P06239); assay: Lck enzyme activity (IMAP fluorescence polarization assay)
# [4] = molecular target: Src enzyme (Homo sapiens (Human), UniProt P12931); assay: Src enzyme activity (IMAP fluorescence polarization assay)
# [5] = molecular target: Lyn enzyme (Homo sapiens (Human), UniProt P07948); assay: Lyn enzyme activity (IMAP fluorescence polarization assay)
# [6] = read-out: EC50 Btk activity values, IMAP, 60 min pre-incubation, 5 μM ATP, bin bound in nM
# [7] = read-out: EC50 Lck activity values, IMAP, 60 min pre-incubation, 6 μM ATP, bin bound in μM
# [8] = read-out: EC50 Src activity values, IMAP, 60 min pre-incubation, 4 μM ATP
# [9] = read-out: EC50 Lyn activity values, 60 min pre-incubation, 2 μM ATP, bin bound in μM
# [10] = IMAP, 60 min pre-incubation, 5 μM ATP, bin bound in nM
# [11] = EC50 Lyn activity values, 60 min pre-incubation, 2 μM ATP, bin bound in μM
# Chain of Btk enzyme (His-Btk) (Q06187 whole entry): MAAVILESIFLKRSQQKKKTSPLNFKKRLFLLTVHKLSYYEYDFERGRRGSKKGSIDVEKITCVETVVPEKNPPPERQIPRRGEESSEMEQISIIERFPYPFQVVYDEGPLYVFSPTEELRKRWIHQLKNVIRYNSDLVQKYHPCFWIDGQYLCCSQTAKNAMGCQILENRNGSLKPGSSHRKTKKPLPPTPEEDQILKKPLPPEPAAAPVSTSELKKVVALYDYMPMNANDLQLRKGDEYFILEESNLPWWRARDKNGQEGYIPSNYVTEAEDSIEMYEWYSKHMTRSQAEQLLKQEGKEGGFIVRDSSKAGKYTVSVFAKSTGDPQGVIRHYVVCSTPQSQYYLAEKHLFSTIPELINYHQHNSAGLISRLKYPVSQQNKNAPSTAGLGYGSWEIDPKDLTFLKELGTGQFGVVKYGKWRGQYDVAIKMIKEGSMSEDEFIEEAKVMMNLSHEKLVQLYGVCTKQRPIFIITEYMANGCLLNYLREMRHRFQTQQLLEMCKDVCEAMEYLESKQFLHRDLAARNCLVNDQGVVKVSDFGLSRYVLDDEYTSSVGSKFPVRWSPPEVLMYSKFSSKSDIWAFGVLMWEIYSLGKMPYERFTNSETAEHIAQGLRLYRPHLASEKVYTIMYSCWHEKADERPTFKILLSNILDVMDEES
# Chain of FynT enzyme (P06241 other isoform, or with tags, fused parts or gaps): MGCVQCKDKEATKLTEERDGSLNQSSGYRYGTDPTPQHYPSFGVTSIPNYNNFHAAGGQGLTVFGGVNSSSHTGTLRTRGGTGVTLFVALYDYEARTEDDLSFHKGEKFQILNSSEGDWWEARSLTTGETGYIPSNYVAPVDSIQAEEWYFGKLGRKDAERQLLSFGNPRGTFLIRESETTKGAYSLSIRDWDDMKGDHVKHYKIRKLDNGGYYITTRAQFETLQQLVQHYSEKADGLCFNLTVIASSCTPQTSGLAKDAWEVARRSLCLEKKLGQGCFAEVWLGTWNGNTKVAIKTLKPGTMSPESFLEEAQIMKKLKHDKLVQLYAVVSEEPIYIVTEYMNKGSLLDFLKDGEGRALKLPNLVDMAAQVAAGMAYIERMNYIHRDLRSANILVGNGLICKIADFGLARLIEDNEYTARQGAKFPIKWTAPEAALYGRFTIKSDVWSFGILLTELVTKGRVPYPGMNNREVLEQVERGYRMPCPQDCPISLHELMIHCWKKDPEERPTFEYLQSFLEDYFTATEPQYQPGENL
# Chain of Src enzyme (P12931 whole entry, looked up): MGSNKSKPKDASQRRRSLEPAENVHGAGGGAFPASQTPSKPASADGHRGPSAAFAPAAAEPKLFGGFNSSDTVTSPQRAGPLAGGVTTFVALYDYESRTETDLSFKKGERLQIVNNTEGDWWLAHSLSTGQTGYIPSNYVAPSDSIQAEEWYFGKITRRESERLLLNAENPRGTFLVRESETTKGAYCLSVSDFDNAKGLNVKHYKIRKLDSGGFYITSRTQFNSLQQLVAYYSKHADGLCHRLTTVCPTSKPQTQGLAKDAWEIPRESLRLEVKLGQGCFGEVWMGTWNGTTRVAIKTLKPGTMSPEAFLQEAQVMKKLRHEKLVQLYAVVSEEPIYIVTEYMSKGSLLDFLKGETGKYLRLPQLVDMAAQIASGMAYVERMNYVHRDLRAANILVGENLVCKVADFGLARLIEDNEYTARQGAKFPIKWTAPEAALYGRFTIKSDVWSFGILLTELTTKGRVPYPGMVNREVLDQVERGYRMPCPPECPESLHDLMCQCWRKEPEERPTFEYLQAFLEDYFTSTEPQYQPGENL
# Chain of Lyn enzyme (P07948 whole entry): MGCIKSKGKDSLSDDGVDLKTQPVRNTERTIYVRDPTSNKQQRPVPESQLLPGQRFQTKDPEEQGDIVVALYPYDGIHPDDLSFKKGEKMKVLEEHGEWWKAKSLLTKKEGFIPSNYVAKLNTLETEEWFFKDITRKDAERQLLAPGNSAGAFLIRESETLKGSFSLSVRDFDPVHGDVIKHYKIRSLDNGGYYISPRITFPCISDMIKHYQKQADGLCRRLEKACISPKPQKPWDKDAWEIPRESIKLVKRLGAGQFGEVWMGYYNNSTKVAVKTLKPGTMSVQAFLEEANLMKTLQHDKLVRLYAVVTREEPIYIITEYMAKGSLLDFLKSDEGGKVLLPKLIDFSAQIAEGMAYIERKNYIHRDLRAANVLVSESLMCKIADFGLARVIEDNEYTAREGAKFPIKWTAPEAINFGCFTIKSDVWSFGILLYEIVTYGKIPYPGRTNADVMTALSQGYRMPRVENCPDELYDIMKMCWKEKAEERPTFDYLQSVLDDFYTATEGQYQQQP
# Chain of Lck enzyme (P06239 whole entry): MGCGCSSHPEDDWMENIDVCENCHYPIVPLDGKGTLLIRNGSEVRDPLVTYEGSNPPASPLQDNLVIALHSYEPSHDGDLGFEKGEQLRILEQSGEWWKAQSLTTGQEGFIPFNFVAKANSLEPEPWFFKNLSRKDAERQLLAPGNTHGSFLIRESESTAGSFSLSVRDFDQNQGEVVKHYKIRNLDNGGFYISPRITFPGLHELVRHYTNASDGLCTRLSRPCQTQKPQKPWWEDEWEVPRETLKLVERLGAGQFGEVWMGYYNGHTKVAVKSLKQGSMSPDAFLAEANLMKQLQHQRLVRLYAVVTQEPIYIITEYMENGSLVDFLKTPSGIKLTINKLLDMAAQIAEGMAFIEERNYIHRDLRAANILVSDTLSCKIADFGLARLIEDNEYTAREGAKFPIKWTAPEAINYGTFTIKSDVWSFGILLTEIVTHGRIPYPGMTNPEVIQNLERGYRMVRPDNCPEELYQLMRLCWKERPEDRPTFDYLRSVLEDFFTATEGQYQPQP
SMILES,EC50 [1],"EC50 [2, 6]","EC50 [3, 7]","EC50 [4, 8]","EC50 [5, 9]",EC50 [2],"EC50 Btk activity values [2, 10]",EC50 [3],EC50 [4],"EC50 [5, 11]"
"C=CC(=O)N1CCC[C@H]1c1nc(-c2ccc(C(=O)Nc3ccccn3)cc2)c2c(N)nccn12 [Example 1, (S)-4-(3-(1-Acryloylpyrrolidin-2-yl)-8-aminoimidazo[1,5-a]pyrazin-1-yl)-N-(pyridin-2-yl)benzamide]",≥ 1 µM,< 10 nM,≥ 1 µM,≥ 1 µM,≥ 1 µM,–,–,–,–,–
"Nc1nccn2c([C@@H]3CCCN3C(=O)/C=C/CN3CCCC3)nc(-c3ccc(C(=O)Nc4ccccn4)cc3)c12 [Example 2, (S,E)-4-(8-amino-3-(1-(4-(pyrrolidin-1-yl)but-2-enoyl)pyrrolidin-2-yl)imidazo[1,5-a]pyrazin-1-yl)-N-(pyridin-2-yl)benzamide]",≥ 1 µM,–,–,–,–,10 to 100 nM,<100 nM,≥ 1 µM,≥ 1 µM,≥ 1 µM
"CN(C)C/C=C/C(=O)N1CCC[C@H]1c1nc(-c2ccc(C(=O)Nc3ccccn3)cc2)c2c(N)nccn12 [Example 3, (S,E)-4-(8-Amino-3-(1-(4-(dimethylamino)but-2-enoyl)pyrrolidin-2-yl)imidazo[1,5-a]pyrazin-1-yl)-N-(pyridin-2-yl)benzamide]",–,< 10 nM,–,–,–,–,–,–,–,–
"COC/C=C/C(=O)N1CCC[C@H]1c1nc(-c2ccc(C(=O)Nc3ccccn3)cc2)c2c(N)nccn12 [Example 4, (S,E)-4-(8-amino-3-(1-(4-methoxybut-2-enoyl)pyrrolidin-2-yl)imidazo[1,5-a]pyrazin-1-yl)-N-(pyridin-2-yl)benzamide]",≥ 1 µM,–,≥ 1 µM,≥ 1 µM,≥ 1 µM,10 to 100 nM,<100 nM,–,–,–
"Nc1nccn2c([C@@H]3CCCN3C(=O)c3ccnc(Cl)n3)nc(-c3ccc(C(=O)Nc4ccccn4)cc3)c12 [Example 5, (S)-4-(8-amino-3-(1-(2-chloropyrimidine-4-carbonyl)pyrrolidin-2-yl)imidazo[1,5-a]pyrazin-1-yl)-N-(pyridin-2-yl)benzamide]",≥ 1 µM,–,≥ 1 µM,≥ 1 µM,≥ 1 µM,10 to 100 nM,<100 nM,–,–,–
"CC#CC(=O)N1CCC[C@H]1c1nc(-c2ccc(C(=O)Nc3ccccn3)cc2)c2c(N)nccn12 [Example 6, (S)-4-(8-amino-3-(1-but-2-ynoylpyrrolidin-2-yl)imidazo[1,5-a]pyrazin-1-yl)-N-(pyridin-2-yl)benzamide]",≥ 1 µM,–,–,–,–,–,–,≥ 1 µM,≥ 1 µM,≥ 1 µM
"CN(C)C/C=C/C(=O)N1CCC[C@H]1c1nc(-c2ccc(C(=O)Nc3cc(F)ccn3)cc2)c2c(N)nccn12 [Example 7, (S,E)-4-(8-Amino-3-(1-(4-(dimethylamino)but-2-enoyl)pyrrolidin-2-yl)imidazo[1,5-a]pyrazin-1-yl)-N-(4-fluoropyridin-2-yl)benzamide]",≥ 1 µM,–,≥ 1 µM,≥ 1 µM,≥ 1 µM,10 to 100 nM,<100 nM,–,–,–
"CC#CC(=O)N1CCC[C@H]1c1nc(-c2ccc(C(=O)Nc3cc(C)ccn3)cc2)c2c(N)nccn12 [Example 8, (S)-4-(8-Amino-3-(1-but-2-ynoylpyrrolidin-2-yl)imidazo[1,5-a]pyrazin-1-yl)-N-(4-methylpyridin-2-yl)benzamide]",≥ 1 µM,< 10 nM,≥ 1 µM,≥ 1 µM,≥ 1 µM,–,–,–,–,–
"CC#CC(=O)N1CCC[C@H]1c1nc(-c2ccc(C(=O)Nc3cc(C(F)(F)F)ccn3)cc2)c2c(N)nccn12 [Example 10, (S)-4-(8-Amino-3-(1-but-2-ynoylpyrrolidin-2-yl)imidazo[1,5-a]pyrazin-1-yl)-N-(4-(trifluoromethyl)pyridin-2-yl)benzamide]",≥ 1 µM,< 10 nM,≥ 1 µM,≥ 1 µM,≥ 1 µM,–,–,–,–,–
"CCc1ccnc(NC(=O)c2ccc(-c3nc([C@@H]4CCCN4C(=O)/C=C/COC)n4ccnc(N)c34)cc2)c1 [Example 11, (S,E)-4-(8-Amino-3-(1-(4-methoxybut-2-enoyl)pyrrolidin-2-yl)imidazo[1,5-a]pyrazin-1-yl)-N-(4-ethylpyridin-2-yl)benzamide]",≥ 1 µM,–,≥ 1 µM,≥ 1 µM,≥ 1 µM,10 to 100 nM,<100 nM,–,–,–
"CC#CC(=O)N1CCC[C@H]1c1nc(-c2ccc(C(=O)Nc3nc4c(s3)CCCC4)cc2)c2c(N)nccn12 [Example 12, (S)-4-(8-Amino-3-(1-but-2-ynoylpyrrolidin-2-yl)imidazo[1,5-a]pyrazin-1-yl)-N-(4,5,6,7-tetrahydrobenzo[d]thiazol-2-yl)benzamide]",≥ 1 µM,< 10 nM,≥ 1 µM,≥ 1 µM,≥ 1 µM,–,–,–,–,–
"C=CC(=O)N1CCC[C@H]1c1nc(-c2ccc(C(=O)Nc3ccccn3)c(F)c2)c2c(N)nccn12 [Example 13, (S)-4-(3-(1-acryloylpyrrolidin-2-yl)-8-aminoimidazo[1,5-a]pyrazin-1-yl)-2-fluoro-N-(pyridin-2-yl)benzamide]",≥ 1 µM,< 10 nM,≥ 1 µM,≥ 1 µM,≥ 1 µM,–,–,–,–,–
"C=CC(=O)N1CCC[C@H]1c1nc(-c2ccc(C(=O)Nc3ccccn3)c(OC)c2)c2c(N)nccn12 [Example 14, (S)-4-(3-(1-Acryloylpyrrolidin-2-yl)-8-aminoimidazo[1,5-a]pyrazin-1-yl)-2-methoxy-N-(pyridin-2-yl)benzamide]",≥ 1 µM,< 10 nM,≥ 1 µM,≥ 1 µM,≥ 1 µM,–,–,–,–,–
"CN(C)C/C=C/C(=O)N1CCC[C@H]1c1nc(-c2ccc(C(=O)Nc3nccs3)cc2)c2c(N)nccn12 [Example 15, (S,E)-4-(8-Amino-3-(1-(4-(dimethylamino)but-2-enoyl)pyrrolidin-2-yl)imidazo[1,5-a]pyrazin-1-yl)-N-(thiazol-2-yl)benzamide]",≥ 1 µM,< 10 nM,≥ 1 µM,≥ 1 µM,≥ 1 µM,–,–,–,–,–
"COC/C=C/C(=O)N1CCCC[C@H]1c1nc(-c2ccc(C(=O)Nc3ccccn3)cc2)c2c(N)nccn12 [Example 16, (S,E)-4-(8-Amino-3-(1-(4-methoxybut-2-enoyl)piperidin-2-yl)imidazo[1,5-a]pyrazin-1-yl)-N-(pyridin-2-yl)benzamide]",≥ 1 µM,< 10 nM,≥ 1 µM,≥ 1 µM,≥ 1 µM,–,–,–,–,–
"C/C=C/C(=O)N1CCC[C@H]1c1nc(-c2ccc(C(=O)Nc3ccccn3)cc2)c2c(N)nccn12 [Example 93, (S,E)-4-(8-amino-3-(1-but-2-enoylpyrrolidin-2-yl)imidazo[1,5-a]pyrazin-1-yl)-N-(pyridin-2-yl)benzamide]",≥ 1 µM,–,–,≥ 1 µM,≥ 1 µM,–,–,≥ 1 µM,–,–
"CN(C)C/C=C/C(=O)N1CCC[C@H]1c1nc(-c2ccc(C(=O)Nc3ccccn3)cc2)c2c(N)nccn12 [Example 127, (S,E)-4-(8-amino-3-(1-(4-(dimethylamino)but-2-enoyl)pyrrolidin-2-yl)imidazo[1,5-a]pyrazin-1-yl)-N-(pyridin-2-yl)benzamide]",≥ 1 µM,–,≥ 1 µM,≥ 1 µM,≥ 1 µM,–,–,–,–,–
